Our source for the Ki values is patent US9469615B2, “Quinoxalines and AZA-quinoxalines as CRTH2 receptor modulators” (Merck Sharp & Dohme Corp., priority 2010, dated 2016).

Each structure is given as a SMILES string.

The term Ki denotes a measure of affinity in units of concentration, obtained from inhibition or displacement. The low end stands for higher affinity, the high end for lower affinity.

This experiment has as its target T1, hCRTH2 (Homo sapiens, UniProt Q9Y5Y4).
T1 construct: expressed in transfected cells; host or cells: HEK (human embryonic kidney) cells expressing hCRTH2; membrane preparation
T1 sequence (Q9Y5Y4 1-395): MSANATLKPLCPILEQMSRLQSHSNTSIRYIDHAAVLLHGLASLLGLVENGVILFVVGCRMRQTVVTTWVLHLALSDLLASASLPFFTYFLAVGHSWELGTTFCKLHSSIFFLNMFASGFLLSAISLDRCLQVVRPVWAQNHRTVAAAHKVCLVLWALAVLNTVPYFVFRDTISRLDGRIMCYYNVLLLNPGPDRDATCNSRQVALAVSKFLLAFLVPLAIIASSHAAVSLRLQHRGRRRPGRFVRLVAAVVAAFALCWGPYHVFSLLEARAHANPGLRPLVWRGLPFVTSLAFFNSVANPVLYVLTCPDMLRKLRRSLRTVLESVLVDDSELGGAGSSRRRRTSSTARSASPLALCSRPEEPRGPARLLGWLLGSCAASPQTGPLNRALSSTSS
Briefly: Radioligand binding assay ([3H]PGD2 competition, HEK-hCRTH2 membranes). As to conditions: [3H]PGD2 competition, Table B. In short, it runs like this: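 Competition against 3.0 nM [3H]PGD2 was run for 60 min at room temperature in pH 7.4 Tris-HCl buffer with EDTA, 2 mM MnCl2 and 1% DMSO, using 8-20 μg HEK-hCRTH2 membrane protein. 10 μM PGD2 set non-specific binding; filter-bound counts were read by scintillation.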

`O=C(O)CCCCc1nc2cc(C(=O)N[C@H]3COc4ccccc43)ccc2nc1-c1ccc(Cl)cc1` [compound 580, (R)-5-(3-(4-chlorophenyl)-7-((2,3-dihydrobenzofuran-3-yl)carbamoyl)quinoxalin-2-yl)pentanoic acid] showed an inhibitory constant (Ki) of 0.1 to 2 nM.
`CC1(C)CC(NC(=O)c2ccc3nc(-c4ccc(Cl)cc4)c(CCCCC(=O)O)nc3c2)c2ccccc2O1` (stereo not drawn) [compound 582, 5-(3-(4-chlorophenyl)-7-((2,2-dimethylchroman-4-yl)carbamoyl)quinoxalin-2-yl)pentanoic acid] showed a Ki of 0.1 to 2 nM.
To `O=C(O)CCCCc1nc2cc(C(=O)N3CCC4(CCCc5ccccc54)C3)ccc2nc1-c1ccc(Cl)cc1` (stereo not drawn) [compound 583, 5-(3-(4-chlorophenyl)-7-(3,4-dihydro-2H-spiro [naphthalene-1,3′-pyrrolidin]-1′-ylcarbonyl)quinoxalin-2-yl)pentanoic acid] belongs 0.1 to 2 nM; to `O=C(O)CCCCc1nc2cc(C(=O)NC3C(=O)Nc4ccccc43)ccc2nc1-c1ccc(Cl)cc1` (stereo not drawn) [compound 584, 5-(3-(4-chlorophenyl)-7-((2-oxoindolin-3-yl)carbamoyl)quinoxalin-2-yl)pentanoic acid], 2.1 to 20 nM; to `COc1ccc2c(c1)CCC[C@H]2NC(=O)c1ccc2nc(-c3ccc(F)cc3)c(CCCC(F)(F)C(=O)O)nc2c1` [compound 589, (R)-2,2-difluoro-5-(3-(4-fluorophenyl)-7-((6-methoxy-1,2,3,4-tetrahydro-naphthalen-1-yl)carbamoyl)quinoxalin-2-yl)pentanoic acid], 20.1 to 200 nM.
On to `O=C(O)CCCCc1nc2cc(C(=O)N3CCN(C(=O)OCc4ccccc4)CC3)ccc2nc1-c1ccc(Cl)cc1` [compound 590, 5-(7-(4-((benzyloxy)carbonyl)piperazine-1-carbonyl)-3-(4-chlorophenyl)quinoxalin-2-yl)pentanoic acid], for which the Ki lay in the range of 2.1 to 20 nM.
`O=C(O)CCCCc1nc2cc(C(=O)N3CCCN(Cc4ccccc4)CC3)ccc2nc1-c1ccc(Cl)cc1` [compound 591, 5-(7-(4-benzyl-1,4-diazepane-1-carbonyl)-3-(4-chlorophenyl)quinoxalin-2-yl)pentanoic acid] registered an inhibition constant (Ki) of 2.1 to 20 nM.
On to `O=C(O)CCCCc1nc2cc(C(=O)N3CCN(C(=O)c4ccco4)CC3)ccc2nc1-c1ccc(Cl)cc1` [compound 592, 5-(3-(4-chlorophenyl)-7-(4-(furan-2-carbonyl)piperazine-1-carbonyl)quinoxalin-2-yl)pentanoic acid], for which the Ki is 2.1 to 20 nM.
`CN(Cc1ccccc1)C(=O)c1ccc2nc(-c3ccc(Cl)cc3)c(CCCCC(=O)O)nc2c1` [compound 593, 5-(7-(benzyl(methyl)carbamoyl)-3-(4-chlorophenyl)quinoxalin-2-yl)pentanoic acid]: the inhibitory constant (Ki) is 0.1 to 2 nM.
Turning to `O=C(O)CCCCc1nc2cc(C(=O)N3CCN(c4ccncc4)CC3)ccc2nc1-c1ccc(Cl)cc1` [compound 594, 5-(3-(4-chlorophenyl)-7-(4-(pyridin-4-yl)piperazine-l-carbonyl)quinoxalin-2-yl)pentanoic acid], the inhibition constant Ki fell in the range of 201 to 700 nM.
`N#Cc1cccnc1N1CCN(C(=O)c2ccc3nc(-c4ccc(Cl)cc4)c(CCCCC(=O)O)nc3c2)CC1` [compound 595, 5-(3-(4-chlorophenyl)-7-(4-(3-cyanopyridin-2-yl)piperazine-1-carbonyl)quinoxalin-2-yl)pentanoic acid] showed a Ki of 0.1 to 2 nM.
For `O=C(O)CCCCc1nc2cc(C(=O)N3CCN(c4c(Cl)cncc4Cl)CC3)ccc2nc1-c1ccc(Cl)cc1` [compound 596, 5-(3-(4-chlorophenyl)-7-(4-(3,5-dichloropyridin-4-yl)piperazine-1-carbonyl)quinoxalin-2-yl)pentanoic acid], the Ki was 0.1 to 2 nM.
In turn, `O=C(O)CCCCc1nc2cc(C(=O)N3CCN(c4cnccn4)CC3)ccc2nc1-c1ccc(Cl)cc1` [compound 597, 5-(3-(4-chlorophenyl)-7-(4-(pyrazin-2-yl)piperazine-1-carbonyl)quinoxalin-2-yl)pentanoic acid] registered a Ki of 2.1 to 20 nM.
`O=C(O)CCCCc1nc2cc(C(=O)N3CCN4CCCC4C3)ccc2nc1-c1ccc(Cl)cc1` (stereo not drawn) [compound 598, 5-(3-(4-chlorophenyl)-7-(octahydropyrrolo[1,2-a]pyrazine-2-carbonyl)quinoxalin-2-yl)pentanoic acid] displayed a Ki of 2.1 to 20 nM.
With `O=C(O)CCCCc1nc2cc(C(=O)N3CCN(c4ccc(C(F)(F)F)cn4)CC3)ccc2nc1-c1ccc(Cl)cc1` [compound 599, 5-(3-(4-chlorophenyl)-7-(4-(5-yl)piperazine-1-carbonyl)quinoxalin-2-yl)pentanoic acid], the Ki lay in the range of 0.1 to 2 nM.
In turn, `O=C(O)CCCCc1nc2cc(C(=O)N3CCN(c4ccccc4C(F)(F)F)CC3)ccc2nc1-c1ccc(Cl)cc1` [compound 600, 5-(3-(4-chlorophenyl)-7-(4-(2-(trifluoromethyl)phenyl)piperazine-1-carbonyl)quinoxalin-2-yl)pentanoic acid] registered a Ki of 0.1 to 2 nM.
To `O=C(O)CCCCc1nc2cc(C(=O)N3CCN(c4nccs4)CC3)ccc2nc1-c1ccc(Cl)cc1` [compound 601, 5-(3-(4-chlorophenyl)-7-(4-(thiazol-2-yl)piperazine-1-carbonyl)quinoxalin-2-yl)pentanoic acid] belongs 2.1 to 20 nM; to `O=C(O)CCCCc1nc2cc(C(=O)N3CCN(c4nc5ccccc5s4)CC3)ccc2nc1-c1ccc(Cl)cc1` [compound 602, 5-(7-(4-(benzo[d]thiazol-2-yl)piperazine-1-carbonyl)-3-(4-chlorophenyl)quinoxalin-2-yl)pentanoic acid], 0.1 to 2 nM.
`O=C(O)CCCCc1nc2cc(C(=O)N3CCc4ccccc4C3)ccc2nc1-c1ccc(Cl)cc1` [compound 603, 5-(3-(4-chlorophenyl)-7-(1,2,3,4-tetrahydroisoquinoline-2-carbonyl)quinoxalin-2-yl)pentanoic acid]: the Ki is 2.1 to 20 nM.
The compound `N#CC1(c2ccccc2)CCN(C(=O)c2ccc3nc(-c4ccc(Cl)cc4)c(CCCCC(=O)O)nc3c2)C1` (stereo not drawn) [compound 604, 5-(3-(4--chlorophenyl)-7-(3-cyano-3-phenyl-pyrrolidine-1-carbonyl)quinoxalin-2-yl)pentanoic acid] displayed a Ki of 0.1 to 2 nM.
To `CS(=O)(=O)N1CCC(NC(=O)c2ccc3nc(-c4ccc(Cl)cc4)c(CCCCC(=O)O)nc3c2)c2ccccc21` (stereo not drawn) [compound 605, 5-(3-(4-chlorophenyl)-7-((1-(methylsulfonyl)-1,2,3,4-tetrahydroquinolin-4-yl)carbamoyl)quinoxalin-2-yl)pentanoic acid] belongs 0.1 to 2 nM; to `O=C(O)CCCCc1nc2cc(C(=O)N3CC(c4ccc(F)cc4)C3)ccc2nc1-c1ccc(Cl)cc1` [compound 606, 5-(3-(4-chlorophenyl)-7-(3-(4-fluorophenyl)azetidine-1-carbonyl)quinoxalin-2-yl)pentanoic acid], 2.1 to 20 nM; to `O=C(O)CCCCc1nc2cc(C(=O)N3Cc4ccccc4C3)ccc2nc1-c1ccc(Cl)cc1` [compound 607, 5-(3-(4-chlorophenyl)-7-(isoindoline-2-carbonyl)quinoxalin-2-yl)pentanoic acid], 0.1 to 2 nM.
In turn, `O=C(O)CCCCc1nc2cc(C(=O)N3CCc4c([nH]c5ccccc45)C3)ccc2nc1-c1ccc(Cl)cc1` [compound 608, 5-(3-(4-chlorophenyl)-7-(2,3,4,9-tetrahydro-1H-pyrido[3,4-b]indole-2-carbonyl)quinoxalin-2-yl)pentanoic acid] came in with a Ki of 2.1 to 20 nM.
